Results on 4 compounds are retold here after patent publication US20090149536A1, “4-OXO-(ISO)TRETINOIN FOR THE TOPICAL TREATMENT OF SEVERE DERMATOLOGICAL DISORDERS” (priority 2005, published 2009).

Data set [1] relates to skin. An excerpt:
Observations and examinations included clinical monitoring of skin reaction and histopathological examination of excised skin specimen at study end.

The test system of a further data set is lipogenesis in epidermis. In words: study of lipogenesis in skin biopsies (14C-Dextrose integrated in epidermis lipids). Type of data set: in vivo, Fuzzy rats. The method, then: At the end of the treatment, animals were anaesthetized with Pentobarbital 70 mg/kg by IP route. For each rat, two biopsies of 3-mm of dorsal skin per treated region with test substances were collected. Each biopsy was weighed. Rats were sacrificed by inhalation of CO2.
The biopsies (from 175 to 466 mg) were incubated in 1 ml of KRB in presence of 5 μCi D-[U-^14C]-Dextrose/ml at 37° C., 5% CO2 for 3 h.
After incubation, biopsies were rinsed 3 times with 3 ml of KRB. Dermis and epidermis were separated according to method described by Levang A. K. et al..
So, skin biopsies were soaked in water at 60° C. for 45 s. The skin was then removed and blotted dry and pinned with the dermal skin side down. The epidermis and dermis were separated by scrapping and epidermis was weighted.
Each fraction (100 mg) epidermis was cut into small fragments by using scalpels. Fragments were homogenized with chloroform:methanol [(2:1; v:v), Ref. C2432, batch No. 055K0070, Sigma, France: Ref M3641-1L, batch No. 104K3641, Sigma, France] according to the ratio 50 mg of tissue/ml of chloroform:methanol (2:1; v:v) with Potter-Elvehjem type of homogenizer (Ref. 48780, Dutscher, France).
Then, the mixture was washed with 0.2 volume of water. Two phases were separated by centrifugation during 20 min at 800 g.
The rate of lipid extraction was calculated as following: • R=(dpm[4-14C]Cholesterol after extraction)/dpm[4-14C]Cholesterol before extraction×100
The lipogenesis was evaluated as the number of dpm/100 mg tissue. • Lipogenesis=cpm×R×AS (D-[U-^14C]-Dextrose)
At the end of treatment (D25), rats were anaesthetized, skin biopsies were collected and lipogenesis was assessed. Briefly, biopsies were incubated with ^14C-Dextrose in Krebs-Ringer buffer for 3 h at 37° C., 5% CO2. After separation of dermis and epidermis, total lipids were extracted from epidermis. Radioactivity was counted using a β-counter.

The conditions of data set [2]: in vivo. An excerpt: Suitable dosages are described herein below and can be determined by a doctor based on usual parameters like e.g. the weight and age of the patient, and the current status of the disease.
The subject of the next data set is sebum excretion rate. Conditions: cited from earlier work.
For data set [3] the following is noted: topical 1.5% 4-oxo-tretinoin or 2% 4-oxo-isotretinoin, n=5 per compound, serial samples.
In data set [4] the test system is severe acne on back or chest. The settings on record: 2 g cream, 0.5% 4-Oxotretinoin or up to 1% 4-Oxo-Isotretinoin, topical on back, 4 weeks minimum; Leeds grade 5 to 8. An excerpt:
Fifteen male patients aged between 18 and 65 with severe acne on back or chest rated a grade of 5 to 8 according to the Leeds revised acne grading system (Journal of Dermatological Treatment (1989) 9, 215-220) are enrolled in a pilot study.
After completion of the treatment, the grade of the acne in the designated treatment area is once more determined and compared with the surrounding area of the skin.

The subject of the next data set is sebaceous gland size. Kind of data set: study of sebaceous gland size in skin biopsies (histology). Type of data set: in vivo, Fuzzy rats. Conditions: D25. The method, then: The other biopsies were transferred in fixative solution of 4% Paraformaldehyde Fixative (PAF; Ref. 1.04003.5000, Merck, France) solution for further paraffin-embedding and sebaceous gland size analysis.
The size of sebaceous gland was evaluated by histological study of biopsies.
Biopsies fixed in PAF 4% were paraffin-embedded by the ASP 300 (Leica) automat according to the following procedure:
Histological sections of biopsies were realized (5 sections/biopsy).
Each one was colored by Hemalun/Eosin/Safran OTTIX coloration method according to the following protocol:
A microscopic observation by using a CKX41 light microscope (Olympus, France) was performed. Each sebaceous gland within 1 section/biopsy was numerized with a digital camera (Pwershot A80, Canon) and was measured by using ImageJ software 1.32j.
Each sebaceous gland within 1 section/biopsy was numerized with a digital camera (Pwershot A80, Canon) and was measured by using ImageJ software 1.32j. The mean of gland size was calculated for each group.
At the end of treatment (D25; Oct. 13, 2006), rats were anaesthetized, skin biopsies were collected and embedded in paraffin before being stained by an hematoxylin/eosin solution. Biopsies were then observed and numerized by using a microscope. All sebaceous glands within a biopsy were measured.

Data set [5] has as its system sebaceous gland size and sebum production. The settings on record: topical versus oral; cited from earlier work.
The subject of the next data set is severe acne. The settings on record: oral; cited from earlier work.
A further data set has as its system hairless ("fuzzy") rats. The settings on record: nontoxic dosages (no body weight loss), cited from earlier work.
Data set [6] has as its system dermal lipogenese and sebum production. Conditions: topical; cited from earlier work.
Data set [7] deals with skin. The settings on record: in human, applied topically as cream; cited from earlier work.
A further data set deals with hairless mice. Conditions: nontoxic dosages (no body weight loss); cited from earlier work.
The mark [8] stands for this setting: 0.1% topical, 0.025 mg/2 cm^2, (Q1DX5)×4 weeks, D25.
Setting [9] is: 0.5% topical, 0.125 mg/2 cm^2, (Q1DX5)×4 weeks, D25.
Where [10] appears, read: 0.1% topical, 0.025 mg/2 cm^2, (Q1DX5)×4 weeks.
The mark [11] stands for this setting: 0.2% topical, 0.050 mg/2 cm^2, (Q1DX5)×4 weeks, D25.
Where [12] appears, read: 10 mg/kg PO, (Q1DX5)×4 weeks, D25.

Where two headings read alike, the source gives them in different places.

For the compound `CC1=C(/C=C/C(C)=C/C=C/C(C)=C\C(=O)O)C(C)(C)CCC1=O` [4-oxo-isotretinoin, 4-oxo-13-cis-retinoic acid], the “skin irritation (clinical monitoring of skin reaction)” value with skin [1] (any concentration (0.1, 0.5, 1 or 2%), once daily, 5 days per week, 4 weeks, acetone/ethanol (1:1)) is listed as “No signs of skin irritation”. Further, the “Mean DPM ± SD, Epidermis (100 mg)” value with lipogenesis in epidermis (setting [8]) is 5499 ± 2599 DPM; in the data set on lipogenesis in epidermis (setting [9]), 6524 ± 1792 DPM. The “Mean pmole 14C-dextrose ± SD integrated in 100 mg of tissue (epidermis)” value (shortened to “Mean pmole 14C-dextrose ± SD integrated”) is listed as 6.95±3.31 pmole of 14C-Dextrose/100 mg in the data set on lipogenesis in epidermis (setting [8]); 6.95 ± 3.31 pmole of 14C-Dextrose/100 mg in the data set with lipogenesis in epidermis (0.1% topical, 0.025 mg/2 cm^2, (Q1DX5)×4 weeks, D25, listed as 4-Oxo-isotretinoin); 8.25±2.28 pmole of 14C-Dextrose/100 mg in the data set on lipogenesis in epidermis (setting [9]); 8.25 ± 2.28 pmole of 14C-Dextrose/100 mg with lipogenesis in epidermis (0.5% topical, 0.125 mg/2 cm^2, (Q1DX5)×4 weeks, D25, listed as 4-Oxo-isotretinoin). For the same compound, the “lipogenesis in epidermis, percent of control group” value in the data set on lipogenesis in epidermis (setting [8]) stood at 71%; with lipogenesis in epidermis (setting [9]) it was 84%. The endogenous plasma level result in data set [2] is recorded as “about 4.85±3.89 ng/mL”. Also, the sebum excretion rate entry in the data set on sebum excretion rate (applied orally) is “reduces the sebum excretion rate”. For the same compound, the “pharmacological activity relative to parent drug isotretinoin” value in the data set on sebum excretion rate (in vivo) is listed as “only half as active pharmacologically”. Besides, the “inter-conversion of the 4-oxo isomers: skin and strip levels of both isomers” value in data set [3] is “skin exposure to both 4-oxo-isotretinoin and 4-oxo-tretinoin could be demonstrated”. Also, the “clinical rating of the acne in the treated area compared with untreated skin” value in [4] is “reduces the clinical rating of the acne in the treated area significantly”. For the same compound, the “mean sebaceous gland size, Mean ± SD” value worked out at 24988±15931 pixel^2 in the data set on sebaceous gland size (setting [10]) and 24998 ± 15931 pixel^2 with sebaceous gland size (0.1% topical, 0.025 mg/2 cm^2, (Q1DX5)×4 weeks, listed as 4-Oxo-isotretinoin). Besides, the “sebaceous gland size, percent of control group” value with sebaceous gland size (setting [10]) is given as “(82%)”.
For the compound `CC1=C(/C=C/C(C)=C/C=C/C(C)=C/C(=O)O)C(C)(C)CCC1=O` [4-oxo-tretinoin, 4-oxo-all-trans-retinoic acid], the “histopathological examination of treated skin areas” value in the data set on skin [1] (concentration-dependent, once daily, 5 days per week, 4 weeks) is “concentration-dependent hyperkeratosis, acanthosis and hypertrophy/hyperplasia of sebaceous glands”. The “skin irritation (clinical: reddening (erythema) and occasional scaling)” value in the data set on skin [1] (concentrations ≧0.5% (tested 0.1 to 1.5%), once daily, 5 days per week, 4 weeks) is “dose-dependent slight to moderate skin irritation”. Further, in the data set with skin [1] (concentrations ≧1%), the “histopathological examination of treated skin areas: necrosis” value is “occasional necrosis”. The “Mean DPM ± SD, Epidermis (100 mg)” value is recorded as 7024 ± 1970 DPM in the data set with lipogenesis in epidermis (setting [8]) and 4993 ± 2219 DPM in the data set with lipogenesis in epidermis (setting [11]). Also, the “Mean pmole 14C-dextrose ± SD integrated” value was 9.10±5.23 pmole of 14C-Dextrose/100 mg with lipogenesis in epidermis (setting [8]); 8.89 ± 2.51 pmole of 14C-Dextrose/100 mg with lipogenesis in epidermis (0.1% topical, 0.025 mg/2 cm^2, (Q1DX5)×4 weeks, D25, listed as 4-Oxo-tretinoin); 6.30±2.80 pmole of 14C-Dextrose/100 mg in the data set on lipogenesis in epidermis (setting [11]); 6.30 ± 2.80 pmole of 14C-Dextrose/100 mg with lipogenesis in epidermis (0.2% topical, 0.050 mg/2 cm^2, (Q1DX5)×4 weeks, D25, listed as 4-Oxo-tretinoin). For the same compound, the “lipogenesis in epidermis, percent of control group” value with lipogenesis in epidermis (setting [8]) stood at 91%; with lipogenesis in epidermis (setting [11]), 64%. Besides, the endogenous plasma level entry in data set [2] is on record as “about 9.88±7.57 ng/mL”. For the same compound, in [3], the “inter-conversion of the 4-oxo isomers: skin and strip levels of both isomers” value is “skin exposure to both 4-oxo-isotretinoin and 4-oxo-tretinoin could be demonstrated”. The “clinical rating of the acne in the treated area compared with untreated skin” value in data set [4] is “reduces the clinical rating of the acne in the treated area significantly”.
Regarding `CC1=C(/C=C/C(C)=C/C=C/C(C)=C\C(=O)O)C(C)(C)CCC1` [13-cis-RA, 13-cis retinoic acid, reference compound], in data set [5], the “reduction of effectiveness in reducing sebaceous gland size and suppressing sebum production, topical compared to oral administration” value was “up to 90%”. Further, the “Mean DPM ± SD, Epidermis (100 mg)” value in the data set with lipogenesis in epidermis (setting [12]) is 5188 ± 1875 DPM. Further, the “Mean pmole 14C-dextrose ± SD integrated” value in the data set with lipogenesis in epidermis (setting [12]) is reported as 6.55±2.38 pmole of 14C-Dextrose/100 mg. Also, the “change of lipogenesis in epidermis versus vehicle group” value in the data set with lipogenesis in epidermis (10 mg/kg PO, (Q1DX5)×4 weeks, p<0.05) is listed as −33%. The activity at 10 mg/kg in the data set on lipogenesis in epidermis (Rattus norvegicus, 672 h, 10 mg/kg PO, (Q1DX5)×4 weeks, D25, read-out: lipogenesis in epidermis, percent of control group) came out at 67%; with sebaceous gland size (Rattus norvegicus, 672 h, 10 mg/kg PO, (Q1DX5)×4 weeks, read-out: sebaceous gland size, percent of control group), 83.8%. In addition, the “patients with severe acne reaching long-term remission” value in the data set on severe acne was 80%. Besides, the figures for the “sebosuppressive effect after topical administration” value with hairless ("fuzzy") rats (listed as 13-cis retinoic acid), with hairless ("fuzzy") rats (listed as 13-cis-retinoic acid) and with hairless mice were “no detectable sebosuppressive effects”, “substantially no detectable sebosuppressive activity” and “no detectable sebosuppressive effects”, respectively. Besides, the “influence on the dermal lipogenese and sebum production” value in data set [6] was “Neither topical tretinoin nor topical isotretinoin have been found to have an influence”. The “strength of topical cream that showed local irritation” value with skin [7] was 0.1%. In addition, the “mean sebaceous gland size, Mean ± SD” value in the data set with sebaceous gland size (10 mg/kg PO, (Q1DX5)×4 weeks) was 25493±17065 pixel^2.
For `CC1=C(/C=C/C(C)=C/C=C/C(C)=C/C(=O)O)C(C)(C)CCC1` [tretinoin, all-trans retinoic acid], in data set [6], the “influence on the dermal lipogenese and sebum production” value is reported as “Neither topical tretinoin nor topical isotretinoin have been found to have an influence”. The “strength of topical cream that showed local irritation” value with skin [7] is 0.05%.
